Experimental data taken from ChEMBL document CHEMBL5257102, “Enzymatic transformation of esculetin as a potent class of α-glucosidase inhibitors” (Bioorg Med Chem Lett, 2023).

Legend:
Format in all cases: protein assay
Alpha glucosidase [1] = biological target: T1, Alpha glucosidase (Homo sapiens, UniProt O43451+P10253+P14410+Q2M2H8); assay: Inhibition of Alpha-glucosidase (unknown origin)
Alpha glucosidase [2] = biological target: T1, Alpha glucosidase; assay: Competitive inhibition of Alpha-glucosidase (unknown origin) by Lineweaver-Burk plot analysis
Alpha glucosidase [3] = biological target: T1, Alpha glucosidase; assay: Inhibition of Alpha-glucosidase (unknown origin) by Lineweaver-Burk plot analysis; conditions: dose 4.0 µM

SMILES: O=c1ccc2cc(O)c(O)c(-c3c(O)c(O)cc4ccc(=O)oc34)c2o1
- IC50 (Alpha glucosidase [1]): 6.4 µM
- Ki (Alpha glucosidase [2]): 3.4 µM

SMILES: O=c1ccc2c(-c3c(O)c(O)c(-c4c(O)c(O)cc5oc(=O)ccc45)c4oc(=O)ccc34)c(O)c(O)cc2o1
- IC50 (Alpha glucosidase [1]): 4.7 µM
- Ki (Alpha glucosidase [2]): 1.9 µM

SMILES: O=c1ccc2cc(O)c(O)cc2o1 [ESCULETIN]
- IC50 (Alpha glucosidase [1]): > 500 µM

SMILES: O=c1ccc2c(-c3c(O)c(O)c(-c4c(O)c(O)c(-c5c(O)c(O)cc6oc(=O)ccc56)c5oc(=O)ccc45)c4oc(=O)ccc34)c(O)c(O)cc2o1
- IC50 (Alpha glucosidase [1]): 2.3 µM
- Ki (Alpha glucosidase [2]): 0.9 µM

SMILES: O=c1ccc2c(Oc3cc4oc(=O)ccc4c(-c4c(O)c(O)c(-c5c(O)c(O)c(-c6c(O)c(O)cc7oc(=O)ccc67)c6ccc(=O)oc56)c5ccc(=O)oc45)c3O)c(O)c(O)cc2o1
- IC50 (Alpha glucosidase [1]): 0.7 µM
- Ki (Alpha glucosidase [2]): 0.2 µM
- inhibition (Alpha glucosidase [3]): Dose-Dependent Effect

SMILES: O=c1ccc2c(-c3c(O)c(O)cc4ccc(=O)oc34)c(O)c(O)cc2o1
- IC50 (Alpha glucosidase [1]): 17.6 µM
- Ki (Alpha glucosidase [2]): 10.1 µM

SMILES: O=c1ccc2c(-c3c(O)c(O)c(-c4c(O)c(O)cc5ccc(=O)oc45)c4oc(=O)ccc34)c(O)c(O)cc2o1
- IC50 (Alpha glucosidase [1]): 4.2 µM
